pIC50: −log10 of the molar value. Read-outs that look alike come from different tables or passages of the source.
Tests used:
complex I [1] = biological target: T1, complex I; experiment: complex I NADH:paraquat electron transfer, microplate activity assay (ubiquinone replaced by paraquat); type: biochemical, Bos taurus
T1 construct: gene NDUFV1; MitoTox Complex I OXPHOS Activity Microplate Assay (ab109903)

complex I [2] = system: T2, complex I; experiment: NADH oxidation in rat liver submitochondrial particles; type: biochemical
T2 construct: gene Ndufv1; submitochondrial particles from rat liver

`[H]/N=C(/N)NCCCCCNC(=N)N` [DG5] showed a pIC50 (complex I [1]) of 1.92.
`CN(C)C(=N)N=C(N)N` [metformin] gave a pIC50 (complex I [1]; read-out: IC50) of 1.04.
With `[H]/N=C(/N)N/C(=N/[H])NCCc1ccccc1` [phenformin] the “NADH oxidation in rat liver submitochondrial particles” value (complex I [2]) was “Effects of both phenformin and DG5 on NADH oxidation were observed at much lower concentrations than responses to metformin”.
